Experimental data as given in patent US9266876B2 (Actelion Pharmaceuticals Ltd., priority 2012, dated 2016).
pIC50: −log10 of the molar value. Read-outs that look alike come from different tables or passages of the source.

Tests used:
CXCR3 = CXCR3 (Homo sapiens (Human), UniProt P49682); assay: Receptor internalization assay; format: cell-based; settings: read-out: Internalization IC50
Outline: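 In human whole blood, compounds were incubated with CXCL10 (9 nM final) for 30 min at 37 °C to drive receptor internalization, then stained with anti-CXCR3/CD3 antibodies and lysed of red cells. Flow cytometry measured mean surface CXCR3 fluorescence on CD3+ cells, and IC50 came from single-site dose-response fits.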

human CXCR3A = human CXCR3A (Homo sapiens (Human), UniProt P49682); assay: FLIPR assay; format: cell-based; settings: CHO-K1 cells expressing the human CXCR3A coupled to Galpha(16); CXCL10 agonist 20 nM; Fluo-4-AM fluorescence; mean values if determined several times
Sequence of human CXCR3A (P49682 whole entry): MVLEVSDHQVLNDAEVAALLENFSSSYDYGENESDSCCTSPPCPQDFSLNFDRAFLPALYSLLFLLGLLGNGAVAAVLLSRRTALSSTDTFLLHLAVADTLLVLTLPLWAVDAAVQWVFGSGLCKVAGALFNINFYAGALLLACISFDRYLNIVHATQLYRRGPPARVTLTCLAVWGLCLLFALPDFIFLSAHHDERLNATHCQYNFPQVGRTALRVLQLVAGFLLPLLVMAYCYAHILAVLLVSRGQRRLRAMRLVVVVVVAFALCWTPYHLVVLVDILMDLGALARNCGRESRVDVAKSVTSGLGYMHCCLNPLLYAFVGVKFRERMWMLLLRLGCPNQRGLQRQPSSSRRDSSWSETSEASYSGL
Outline: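 CHO-K1 cells expressing CXCR3A coupled to Gα16 were loaded with Fluo-4-AM for 1 h in Hepes-buffered HBSS, pH 7.4, with 5 mM probenecid. Compound dilutions were added on the FLIPR, followed by CXCL10 (added as a 20 nM solution). Baseline-subtracted peak fluorescence was fitted to a single-site curve for IC50.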

[1] = human whole blood, final CXCL10 concentration 9 nM, 30 min 37° C., CXCR3 cell surface expression on CD3 positive cells, flow cytometer

Sequence of CXCR3 (P49682 whole entry): as above

pIC50 (CXCR3; [1]) | pIC50 (human CXCR3A) | SMILES | pIC50 (CXCR3)
5.96 | 8.22 | C[C@@H]1CN(c2sc(C(F)(F)F)nc2-c2nc3ccccc3[nH]2)CCN1C(=O)Cn1cc(C2CCNCC2)cn1 [Example 221, 1-{(R)-4-[4-(1H-Benzoimidazol-2-yl)-2-trifluoromethyl-thiazol-5-yl]-2-methyl-piperazin-1-yl}-2-(4-piperidin-4-yl-pyrazol-1-yl)-ethanone] | –
5.85 | 8.10 | C[C@@H]1CN(c2sc(C(F)(F)F)nc2-c2nc3ccccc3[nH]2)CCN1C(=O)Cn1cncn1 [Example 194, 1-{(R)-4-[4-(1H-Benzoimidazol-2-yl)-2-trifluoromethyl-thiazol-5-yl]-2-methyl-piperazin-1-yl}-2-[1,2,4]triazol-1-yl-ethanone] | –
6.49 | 10.00 | Cc1nc(C)n(CC(=O)N2CCN(c3sc(C(F)(F)F)nc3-c3nc4cc(CCN)ccc4[nH]3)C[C@H]2C)n1 [Example 239, 1-((R)-4-{4-[5-(2-Amino-ethyl)-1H-benzoimidazol-2-yl]-2-trifluoromethyl-thiazol-5-yl}-2-methyl-piperazin-1-yl)-2-(3,5-dimethyl-[1,2,4]triazol-1-yl)-ethanone] | –
7.33 | 8.30 | COCCOc1ccc2[nH]c(-c3nc(C(F)(F)F)sc3N3CCN(C(=O)Cn4cnc5cccnc54)[C@H](C)C3)nc2c1 [Example 163, 2-Imidazo[4,5-b]pyridin-3-yl-1-((R)-4-{4-[5-(2-methoxy-ethoxy)-1H-benzoimidazol-2-yl]-2-trifluoromethyl-thiazol-5-yl}-2-methyl-piperazin-1-yl)-ethanone] | –
6.15 | 8.70 | C[C@@H]1CN(c2sc(C(F)(F)F)nc2-c2nc3ccc(N(C)C)cc3[nH]2)CCN1C(=O)Cn1cccn1 [Example 180, 1-{(R)-4-[4-(6-Dimethylamino-1H-benzoimidazol-2-yl)-2-trifluoromethyl-thiazol-5-yl]-2-methyl-piperazin-1-yl}-2-pyrazol-1-yl-ethanone] | –
7.36 | 9.00 | C[C@@H]1CN(c2sc(C(F)(F)F)nc2-c2nc3ccccc3[nH]2)CCN1C(=O)Cn1cc2cccnc2n1 [Example 202, 1-{(R)-4-[4-(1H-Benzoimidazol-2-yl)-2-trifluoromethyl-thiazol-5-yl]-2-methyl-piperazin-1-yl}-2-pyrazolo[3,4-b]pyridin-2-yl-ethanone] | –
6.51 | 9.00 | C[C@@H]1CN(c2sc(C(F)(F)F)nc2-c2nc3ccccc3[nH]2)CCN1C(=O)Cc1ccccc1N1CCN(C)CC1 [Example 208, 1-{(R)-4-[4-(1H-Benzoimidazol-2-yl)-2-trifluoromethyl-thiazol-5-yl]-2-methyl-piperazin-1-yl}-2-[2-(4-methyl-piperazin-1-yl)-phenyl]-ethanone] | –
5.79 | 8.40 | C[C@@H]1CN(c2scnc2-c2nc3ccccc3[nH]2)CCN1C(=O)Cc1ccccc1-n1nccn1 [Example 186, 1-{(R)-4-[4-(1H-Benzoimidazol-2-yl)-thiazol-5-yl]-2-methyl-piperazin-1-yl}-2-(2-[1,2,3]triazol-2-yl-phenyl)-ethanone] | –
6.03 | 8.70 | Cc1nc(-c2nc3ccccc3[nH]2)c(N2CCN(C(=O)Cn3cnc4cccnc43)[C@H](C)C2)s1 [Example 144, 1-{(R)-4-[4-(1H-Benzoimidazol-2-yl)-2-methyl-thiazol-5-yl]-2-methyl-piperazin-1-yl}-2-imidazo[4,5-b]pyridin-3-yl-ethanone] | –
7.16 | 8.10 | Cc1nc(C)n(CC(=O)N2CCN(c3sc(C(F)(F)F)nc3-c3nc4ccccc4[nH]3)C[C@H]2CN(C)C)n1 [Example 227, 1-{(R)-4-[4-(1H-Benzoimidazol-2-yl)-2-trifluoromethyl-thiazol-5-yl]-2-dimethylaminomethyl-piperazin-1-yl}-2-(3,5-dimethyl-[1,2,4]triazol-1-yl)-ethanone] | –
5.51 | 7.24 | C[C@@H]1CN(c2sc(C(F)(F)F)nc2-c2nc3ccc(CN4CCCCC4)cc3[nH]2)CCN1C(=O)Cn1cccn1 [Example 181, 1-{(R)-2-Methyl-4-[4-(6-piperidin-1-ylmethyl-1H-benzoimidazol-2-yl)-2-trifluoromethyl-thiazol-5-yl]-piperazin-1-yl}-2-pyrazol-1-yl-ethanone] | –

Second part, the compound before the results:

SMILES | pIC50 (CXCR3; [1]) | pIC50 (human CXCR3A) | pIC50 (CXCR3)
C[C@@H]1CN(c2sc(C(F)(F)F)nc2-c2nc3ccccc3[nH]2)CCN1C(=O)Cn1cc(C2CCN(C)CC2)cn1 [Example 222, 1-{(R)-4-[4-(1H-Benzoimidazol-2-yl)-2-trifluoromethyl-thiazol-5-yl]-2-methyl-piperazin-1-yl}-2-[4-(1-methyl-piperidin-4-yl)-pyrazol-1-yl]-ethanone] | 5.82 | 7.80 | –
Cc1cccc2[nH]c(-c3ncsc3N3CCN(C(=O)Cn4ccc5cccnc54)[C@H](C)C3)nc12 [Example 22, 1-{(R)-2-Methyl-4-[4-(4-methyl-1H-benzoimidazol-2-yl)-thiazol-5-yl]-piperazin-1-yl}-2-pyrrolo[2,3-b]pyridin-1-yl-ethanone] | 6.25 | 9.00 | –
Cc1nc(C)n(CC(=O)N2CCN(c3sc(C(F)(F)F)nc3-c3nc4c(F)cccc4[nH]3)C[C@H]2C)n1 [Example 230, 2-(3,5-Dimethyl-[1,2,4]triazol-1-yl)-1-{(R)-4-[4-(4-fluoro-1H-benzoimidazol-2-yl)-2-trifluoromethyl-thiazol-5-yl]-2-methyl-piperazin-1-yl}-ethanone] | 6.86 | 9.00 | –
C[C@@H]1CN(c2sc(CO)nc2-c2nc3ccccc3[nH]2)CCN1C(=O)Cn1cnc2cccnc21 [Example 225, 1-{(R)-4-[4-(1H-Benzoimidazol-2-yl)-2-hydroxymethyl-thiazol-5-yl]-2-methyl-piperazin-1-yl}-2-imidazo[4,5-b]pyridin-3-yl-ethanone] | 5.46 | 7.27 | –
C[C@@H]1CN(c2scnc2-c2nc3cc(C(F)(F)F)ccc3[nH]2)CCN1C(=O)Cn1cnc2cccnc21 [Example 92, 2-Imidazo[4,5-b]pyridin-3-yl-1-{(R)-2-methyl-4-[4-(5-trifluoromethyl-1H-benzoimidazol-2-yl)-thiazol-5-yl]-piperazin-1-yl}-ethanone] | 6.50 | 9.00 | –
C[C@@H]1CN(c2sc(C3CC3)nc2-c2nc3ccccc3[nH]2)CCN1C(=O)Cn1cnc2cccnc21 [Example 73, 1-{(R)-4-[4-(1H-Benzoimidazol-2-yl)-2-cyclopropyl-thiazol-5-yl]-2-methyl-piperazin-1-yl}-2-imidazo[4,5-b]pyridin-3-yl-ethanone] | 6.10 | 8.22 | –
Cc1nc(C)n(CC(=O)N2CCN(c3sc(C(F)(F)F)nc3-c3nc4ccc(C5CCN(C)CC5)cc4[nH]3)C[C@H]2C)n1 [Example 237, 2-(3,5-Dimethyl-[1,2,4]triazol-1-yl)-1-((R)-2-methyl-4-{4-[6-(1-methyl-piperidin-4-yl)-1H-benzoimidazol-2-yl]-2-trifluoromethyl-thiazol-5-yl}-piperazin-1-yl)-ethanone] | – | 8.70 | 7.08
Cc1cc2[nH]c(-c3ncsc3N3CCN(C(=O)Cn4cnc5cccnc54)[C@H](C)C3)nc2cc1Cl [Example 87, 1-{(R)-4-[4-(5-Chloro-6-methyl-1H-benzoimidazol-2-yl)-thiazol-5-yl]-2-methyl-piperazin-1-yl}-2-imidazo[4,5-b]pyridin-3-yl-ethanone] | 6.69 | 9.00 | –
C[C@@H]1CN(c2scnc2-c2nc3ccc(Cl)cc3[nH]2)CCN1C(=O)Cn1cnc2cccnc21 [Example 83, 1-{(R)-4-[4-(6-Chloro-1H-benzoimidazol-2-yl)-thiazol-5-yl]-2-methyl-piperazin-1-yl}-2-imidazo[4,5-b]pyridin-3-yl-ethanone] | 6.47 | 9.00 | –
C[C@@H]1CN(c2scnc2-c2nc3ccccc3[nH]2)CCN1C(=O)CN1CCc2cccnc21 [Example 139, 1-{(R)-4-[4-(1H-Benzoimidazol-2-yl)-thiazol-5-yl]-2-methyl-piperazin-1-yl}-2-(2,3-dihydro-pyrrolo[2,3-b]pyridin-1-yl)-ethanone] | 5.53 | 8.70 | –
O=C(Cn1cnc2cccnc21)N1CCN(c2scnc2-c2nc3ccccc3[nH]2)CC1 [Example 14, 1-{4-[4-(1H-Benzoimidazol-2-yl)-thiazol-5-yl]-piperazin-1-yl}-2-imidazo[4,5-b]pyridin-3-yl-ethanone] | 5.74 | 7.96 | –
Cn1c(=O)n(CC(=O)N2CCN(c3scnc3-c3nc4cc(C#N)ccc4[nH]3)CC2)c2ccccc21 [Example 75, 2-(5-{4-[2-(3-Methyl-2-oxo-2,3-dihydro-benzoimidazol-1-yl)-acetyl]-piperazin-1-yl}-thiazol-4-yl)-1H-benzoimidazole-5-carbonitrile] | 6.14 | 7.82 | –
C[C@@H]1CN(c2scnc2-c2nc3ccccc3[nH]2)CCN1C(=O)Cn1cc2cccnc2n1 [Example 116, 1-{(R)-4-[4-(1H-Benzoimidazol-2-yl)-thiazol-5-yl]-2-methyl-piperazin-1-yl}-2-pyrazolo[3,4-b]pyridin-2-yl-ethanone] | 6.51 | 8.52 | –
O=C(Cn1ccc2cccnc21)N1CCN(c2sc(Br)nc2-c2nc3ccccc3[nH]2)CC1 [Example 38, 1-{4-[4-(1H-Benzoimidazol-2-yl)-2-bromo-thiazol-5-yl]-piperazin-1-yl}-2-pyrrolo[2,3-b]pyridin-1-yl-ethanone] | 5.80 | 8.52 | –
